Assay: gradient 5% acetonitrile 3 min, to 50% in 2 min, to 85% in 15 min, held 3 min, 100 µL/min
Settings: column: Zorbax Extend-C18 2.1 x 50 mm; eluents: water / acetonitrile, 0.1% formic acid
In short: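 Pure standards were run in mixtures of ~100 molecules by HPLC coupled to a quadrupole time-of-flight mass spectrometer. The column was a Zorbax Extend-C18 (2.1 × 50 mm, 1.8 μm) at 100 μL/min, with water and acetonitrile each containing 0.1% formic acid, in positive and negative ionization mode. Dead and dwell volumes were 40 μL and 900 μL. Retention time was taken from computationally picked adduct peaks, each manually inspected, with data collected over 3 months.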

Row | Compound | RP-LC retention time
1 | CCOC(=O)c1c(C)[nH]c(C)c1S(=O)(=O)NCC(=O)N1CCN(c2ccccn2)CC1 | 599 s
2 | COc1ccc(NS(=O)(=O)c2cn(CC(C)C)c3ncccc23)cc1Cl | 950 s
3 | CN1c2cc(Cl)ccc2C(=O)NC12CCN(C(=O)NCCc1ccccc1)CC2 | 757 s
4 | CCOc1ccccc1NC(=O)CN1C(=O)C(C)(C)c2ccccc21 | 976 s
5 | CCc1nc(-c2cccc(-c3noc(COc4ccc(OC)cc4)n3)c2)cs1 | 1270 s
6 | C/C(=C\c1csc(C)n1)C1C[C@@H]2O[C@]2(C)CCC[C@H](C)[C@H](O)[C@@H](C)C(=O)C(C)(C)[C@@H](O)CC(=O)N1 (stereo partly drawn) | 668 s
7 | COc1ccccc1NC(=O)N1CCC2(CC1)NC(=O)c1cc(Cl)ccc1N2C | 806 s
8 | O=C(CC1CCN(C(=O)C2CCCCC2)CC1)NCCCN1CCCC1 | 595 s
9 | COc1ccc(-c2cc3c(=O)n(Cc4noc(CN5CCCC(C)C5)n4)ccn3n2)cc1 (stereo not drawn) | 675 s
10 | CCOc1ccc2nc(SCC(=O)Nc3nccs3)[nH]c2c1 | 622 s
11 | CCOc1ccccc1NC(=O)C1CCN(S(=O)(=O)c2cc(-c3noc(C)n3)cs2)CC1 | 996 s
12 | O=C1NCCCn2cc(S(=O)(=O)Nc3ccc(OC(F)(F)F)cc3)cc21 | 739 s
13 | COc1ccc(Cl)c2c(=O)c3c([nH]c12)CCN(CC(=O)Nc1c(C)cccc1C)C3 | 621 s
14 | CN(C)CCOc1ccccc1Cc1ccccc1 | 762 s
15 | Cc1cc2c(cc1S(=O)(=O)N1CCCC1)N(C(=O)C1CC1)CC2 | 876 s
16 | COc1ccc(N2CCN(C(=O)CN3C(=O)NC(c4ccc(Cl)cc4)C4=C3COC4=O)CC2)cc1 (stereo not drawn) | 752 s
17 | CC(=O)c1ccc(NC(=O)Cn2c(C)cc(-c3nnc(C4CCC4)o3)c2C)cc1 | 813 s
18 | Cc1nn(CC(=O)NCCCN(C)C)c(=O)c2nc(-c3ccccc3)sc12 | 604 s
19 | COc1ccc(N2C=C(C(=O)N3CCCC3)S(=O)(=O)c3ccccc32)cc1OC | 726 s
20 | COc1ccc(NC(=O)N2CCN(c3cc(-c4ccc(OC)c(OC)c4)ncn3)CC2)c(OC)c1 | 660 s
21 | O=C(NC1CCCCCC1)C1CCN(S(=O)(=O)c2cc(C(=O)N3CCCCCC3)cs2)CC1 | 956 s
22 | Cc1ccc(Cl)cc1NC(=O)N(C)CC1CCOCC1 | 761 s

Row | Compound | RP-LC retention time
23 | Cc1ccccc1Nc1c(-c2ccc(Cl)cc2)nc2c(C)cccn12 | 802 s
24 | COc1cccc2cc(C(=O)Nc3nc(-c4ccc(Cl)cc4)cs3)c(=O)oc12 | 1290 s
25 | COc1c(C(=O)NC(C)C)sc2ccc(F)cc12 | 952 s
26 | CN1C(=O)CCc2cc(NC(=O)C3CCC3)ccc21 | 668 s
27 | CS(=O)(=O)NCCS(=O)(=O)N1CCN(c2ccccc2F)CC1 | 723 s
28 | CCN1CCC2(CC1)OC(=O)C(C)=C2C(=O)N1CCN(c2cccc(OC)c2)CC1 | 634 s
29 | COc1ccc(Oc2cc3c(cc2NC(=O)Nc2cccc(OC)c2)n(C)c(=O)n3C)cc1 | 920 s
30 | CCN1CCN(CCCNC(=O)C2CCN(Cc3cn(C)c4ccc(Cl)cc34)CC2)CC1 | 564 s
31 | COc1cccc(-c2c(C(=O)O)nnn2Cc2ccccc2F)c1 | 776 s
32 | COc1ccc(N2CCN(c3cc(SCC(=O)Nc4ccc(F)cc4)ncn3)CC2)cc1 | 1100 s
33 | COCC(=O)Nc1cccn2nc(C(C)C)nc12 | 717 s
34 | CCn1nnc2ccc(-c3noc(-c4ccc(C)cc4)n3)cc21 | 1140 s
35 | Cc1ccc(S(=O)(=O)N2CCc3ccc(NC(=O)Cc4cccs4)cc3C2)cc1 | 942 s
36 | O=C(CCC1CCCN(S(=O)(=O)c2ccccc2F)C1)NC1CCS(=O)(=O)C1 (stereo not drawn) | 748 s
37 | Cc1ccnc(NS(=O)(=O)c2ccc(NC(=O)C3=COCCO3)cc2)n1 | 603 s
38 | COc1ccc(/C=C2\COc3ccc(C)cc3C2=O)cc1O | 1050 s
39 | CCOc1ccc(-n2c(SCC(=O)Nc3ncn[nH]3)nc3ccsc3c2=O)cc1 | 692 s
40 | CC(C)(C)c1[nH]cnc1/C=c1\[nH]c(=O)/c(=C/c2ccccc2)[nH]c1=O | 806 s
41 | CCn1c(=O)oc2cc(-c3noc(-c4n[nH]c5c4CCCC5)n3)ccc21 | 914 s
42 | CC(C)c1noc(-c2cc(=O)n(CC(=O)Nc3cccc(C#N)c3)c3ccccc23)n1 | 967 s
43 | O=C(NCc1ccc(F)cc1)N1CCCN(c2nc3cccnc3s2)CC1 | 687 s
44 | Cc1nn2c(CNC(=O)c3ccc(C(F)(F)F)cc3)c(C)nc2s1 | 692 s

Row | Compound | RP-LC retention time
45 | CCn1c(=O)sc2cc(S(=O)(=O)N3CCC(C(=O)N4CCC(C)CC4)CC3)ccc21 | 900 s
46 | Cc1nc(OCC(=O)Nc2cccc(C)c2C)c2ccccc2n1 | 737 s
47 | CCCc1ccc(S(=O)(=O)N2CCC(F)(c3nc(CC(C)C)no3)CC2)cc1 | 1330 s
48 | CN(C)c1cccc(C(=O)NC2CCN(c3cc(-c4ccc(Cl)cc4)[nH]n3)C2)c1 (stereo not drawn) | 865 s
49 | Cc1ccccc1-c1noc(CCc2nnc3ccc(N4CCN(c5ccccn5)CC4)nn23)n1 | 647 s
50 | COC(=O)c1ccc(NS(=O)(=O)c2ccc(-c3c(C)noc3C)cc2)cc1 | 866 s
51 | Cc1ccc(-c2nc3ncccn3c2Nc2ccc3c(c2)OCCO3)cc1 | 684 s
52 | Cn1cc(C(=O)N2CCCCCCNC(=O)[C@@H]3CCC[C@@H]32)cn1 | 622 s
53 | O=C(NCCc1ccco1)c1ccc2c(c1)NC(=O)C1CCCCN21 (stereo not drawn) | 739 s
54 | CCc1noc(NC(C)=O)c1-c1ccc(OC)c(S(=O)(=O)NCc2ccc(C)cc2)c1 | 802 s
55 | CCOC(=O)c1cnc2nc(C)ccc2c1Nc1cccc(Cl)c1F | 764 s
56 | COc1ccc(-c2nnc(SCc3cc(=O)n4ccsc4n3)o2)cc1OC | 700 s
57 | COc1ccccc1CC(=O)N1C[C@@H]2C[C@H]1C[C@@H]2NC(=O)c1ccccc1 | 729 s
58 | COCCn1nc2n(c1=O)CCC1(CC2)CCN(C(=O)C2CCCO2)CC1 (stereo not drawn) | 600 s
59 | Cc1ccc(NC(=O)Cc2nnc3ccc(-c4nc(C)no4)cn23)c(C)c1 | 781 s
60 | COc1cc(OC)cc(-c2nc(C3CC(=O)N(c4ccc(Cl)cc4)C3)no2)c1 (stereo not drawn) | 1290 s
61 | O=C(NCCC1=CCCCC1)C1CCCN(C(=O)c2cc(-c3ccccn3)n[nH]2)C1 (stereo not drawn) | 723 s
62 | Cc1ccc(N2C(=O)C3N=NN(Cc4nc(-c5ccc(OC(C)C)cc5)no4)C3C2=O)cc1F (stereo not drawn) | 1140 s
63 | Clc1ccc(-c2nc(-c3ccc4c(c3)ncn4CCN3CCOCC3)no2)cc1 | 683 s
64 | O=C(Cn1cnc(-c2noc(-c3ccc(F)cc3)n2)c1)NCc1ccc(F)cc1 | 857 s
65 | CCc1noc(NC(C)=O)c1-c1ccc(OC)c(S(=O)(=O)N2CCOCC2)c1 | 676 s
66 | O=C(CC1CCN(C(=O)c2cc3cc(Cl)ccc3[nH]2)CC1)NCCCN1CCCC1 | 644 s

Row | Compound | RP-LC retention time
67 | CSc1cccc(NC(=O)C2CCCN(C(=O)c3cc(-c4ccncc4)n[nH]3)C2)c1 (stereo not drawn) | 645 s
68 | C=CCNC(=O)N1CCCN(C2=NS(=O)(=O)C(c3ccc(Cl)cc3)=C2C)CC1 | 761 s
69 | COCCN1C(=O)CCC2(CNC(=O)c3cnccn3)CCCC=C12 (stereo not drawn) | 657 s
70 | Cn1cc(CC(=O)NCc2ccc3c(c2)OCO3)c2cccnc21 | 648 s
71 | CCCc1noc(-c2ccc(-n3ncc(C(=O)N4CCC(C)CC4)c3C)nc2)n1 | 1130 s
72 | COc1cccc(Cn2cc(S(=O)(=O)N3CCCCC3)ccc2=O)c1 | 882 s
73 | COc1ccc(C)cc1NC(=O)CN1C(=O)NC2(CCC(C)CC2)C1=O (stereo not drawn) | 853 s
74 | CCOc1ccccc1N1CCN(c2cc(C(=O)O)c3cc(NC(=O)C4CCC4)ccc3n2)CC1 | 864 s
75 | Cc1ccc(C2c3[nH]c4ccccc4c3CCN2C(=O)c2cccs2)cc1 (stereo not drawn) | 1200 s
76 | CC(=O)c1cccc(NC(=O)Cn2cnc3nc4c(cc3c2=O)CCCC4)c1 | 674 s
77 | CCC1CN2C=NC(N3CCN(C(=O)Cc4ccccc4)CC3)=CC2=N1 (stereo not drawn) | 615 s
78 | Cc1cc(C(=O)N2CCOCC2)c2cc(Cl)ccc2n1 | 640 s
79 | O=C(O)c1cccnc1SC1CC(=O)N(c2ccc(F)c(Cl)c2)C1=O (stereo not drawn) | 741 s
80 | CCOCCCNC(=O)C(Cc1c[nH]c2ccccc12)NC(=O)C1CCC(C)CC1 (stereo not drawn) | 839 s
81 | Cc1ccc(NC(=O)Cc2cn3cc(F)ccc3n2)c(C)c1 | 610 s
82 | N#Cc1ccc(NC(=O)C(=O)c2ccc[nH]2)cc1 | 801 s
83 | CCC(=O)N1CCc2cc(N3CC(C(=O)NCc4ccccc4C)CC3=O)ccc21 (stereo not drawn) | 750 s
84 | COc1cccc(CNC(=O)c2cn(-c3cc(N4CCOCC4)ncn3)cn2)c1 | 752 s
85 | CCc1ccc(CN2C[C@@H]3C(=O)N(CCOC)C(=O)[C@@H]3C2)cc1 | 631 s
86 | CCN1c2ccc(F)cc2C(=O)NC12CCN(C(=O)c1ccc(C)cc1)CC2 | 824 s
87 | N#Cc1ccc(C(=O)Nc2cnn(-c3ncc(N4CCCCC4)cn3)c2)cc1 | 848 s
88 | O=c1c2cc(-c3ccc(F)cc3)nn2cnn1Cc1nc(-c2ccc(Br)cc2)no1 | 1210 s
